# Results taken from BindingDB's records for patent US20240018157 (Schrödinger, 2024).
# Biological target: T1, Mucosa-associated lymphoid tissue lymphoma translocation protein 1 (Homo sapiens, UniProt Q9UDY8)
# T1 sequence (Q9UDY8 whole entry): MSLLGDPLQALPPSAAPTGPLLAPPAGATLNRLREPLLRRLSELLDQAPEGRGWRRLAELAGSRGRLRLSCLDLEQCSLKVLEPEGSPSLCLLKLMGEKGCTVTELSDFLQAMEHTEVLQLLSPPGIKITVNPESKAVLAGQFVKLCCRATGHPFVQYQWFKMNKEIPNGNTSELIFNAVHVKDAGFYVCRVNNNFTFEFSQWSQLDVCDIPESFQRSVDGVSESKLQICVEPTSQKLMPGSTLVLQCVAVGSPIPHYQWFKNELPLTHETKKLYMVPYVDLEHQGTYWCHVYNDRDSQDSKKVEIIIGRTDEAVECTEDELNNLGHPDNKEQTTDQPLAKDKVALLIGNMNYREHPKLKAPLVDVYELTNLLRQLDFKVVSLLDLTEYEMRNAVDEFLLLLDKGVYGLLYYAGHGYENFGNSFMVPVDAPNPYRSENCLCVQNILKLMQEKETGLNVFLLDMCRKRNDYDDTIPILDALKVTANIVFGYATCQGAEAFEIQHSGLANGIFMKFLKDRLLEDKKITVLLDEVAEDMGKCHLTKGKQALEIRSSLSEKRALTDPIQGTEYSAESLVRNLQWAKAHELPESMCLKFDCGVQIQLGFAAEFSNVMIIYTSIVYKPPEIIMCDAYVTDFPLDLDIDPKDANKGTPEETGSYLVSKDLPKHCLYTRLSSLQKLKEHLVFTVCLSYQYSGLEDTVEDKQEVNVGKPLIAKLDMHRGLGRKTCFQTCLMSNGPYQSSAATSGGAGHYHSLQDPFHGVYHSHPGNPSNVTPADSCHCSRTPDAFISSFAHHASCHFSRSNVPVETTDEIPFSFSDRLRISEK
# Experiment: MALT1 Protease Assay 1
# Protocol: The final assay buffer includes 2 nM of MALT1 full-length protein, 50 μM Ac-LRSR-AMC substrate, 50 mM Tris pH 7.5, 600 mM Sodium Citrate, 1 mM DTT, 1 mM EDTA, and 0.05% BSA in 384-well plate format using black microtiter square well plates (Optiplate 384-F, Perkin Elmer). Test compounds were dissolved in 100% DMSO at stock of 10 mM, with final DMSO concentration 0.1%. Test compounds were pre-incubated with MALT1 protein for 2 h at room temperature. Substrate was added after the pre-incubation and fluorescence signal was measured using Envision at excitation 355 nm and emission 460 nm after 8 hr incubation at RT. Increase in the assay signal was linear over this period and proportional with increase in the enzyme content.
row,Compound,IC50
1,"O=C(Nc1cnc(-n2nccn2)c(Cl)c1)N1CC(C(F)(F)F)c2c1cnc1cc(Cl)nn21 (stereo not given) [US20240018157, Example 2]",< 10 nM
2,"C[C@]1(C2CC2)CN(C(=O)Nc2cnc(-n3nccn3)c(Cl)c2)c2cnc3cc(Cl)nn3c21 [US20240018157, Example 3]",10 to 100 nM
3,"C[C@@H]1CCN(C(=O)Nc2cnc(-n3nccn3)c(Cl)c2)c2cnc3cc(Cl)nn3c21 [US20240018157, Example 5]",< 10 nM
4,"C[C@H]1CCN(C(=O)Nc2cnc(-n3nccn3)c(Cl)c2)c2cnc3cc(Cl)nn3c21 [US20240018157, Example 6]",10 to 100 nM
5,"CC1(C)CCN(C(=O)Nc2cnc(-n3nccn3)c(Cl)c2)c2cnc3cc(Cl)nn3c21 [US20240018157, Example 7]",< 10 nM
6,"Cc1cc2ncc3c(n2n1)C(C(F)(F)F)CCN3C(=O)Nc1cnc(-n2nccn2)c(Cl)c1 (stereo not given) [US20240018157, Example 10]",< 10 nM
7,"CC1(C)c2c(cnc3cc(Cl)nn23)N(C(=O)Nc2cnc(-n3nccn3)c(Cl)c2)C[C@@H]1O [US20240018157, Example 11]",10 to 100 nM

# Biological target: T1, Mucosa-associated lymphoid tissue lymphoma translocation protein 1
# Experiment: MALT1 Protease Assay 2
# Protocol: Test compounds were dissolved in 100% DMSO at stock of 10 mM, with final DMSO concentration 0.1%. Test compounds were pre-incubated with MALT1 protein for 2 h at room temperature.
row,Compound,IC50
1,"Cc1nn2c3c(cnc2c1N)N(C(=O)Nc1cnc(-n2nccn2)c(Cl)c1)C[C@]3(C)C(F)(F)F [US20240018157, Example 159]",10 to 100 nM
2,"Cc1nn2c3c(cnc2c1N)N(C(=O)Nc1cnc(-n2nccn2)c(Cl)c1)C[C@@]3(C)C(F)(F)F [US20240018157, Example 160]",> 1000 nM
3,"Cc1nnc(C(F)F)cc1NC(=O)N1C[C@@](C)(C(F)(F)F)c2c1cnc1cc(F)nn21 [US20240018157, Example 161]",100 to 1000 nM
4,"CN1CC(n2nc(NC(=O)N3C[C@@](C)(C(F)(F)F)c4c3cnc3cc(Cl)nn43)cc2Cl)C1 [US20240018157, Example 163]",> 1000 nM
5,"C[C@@]1(C(F)(F)F)CN(C(=O)N[C@@H]2CCC(F)(F)C2)c2cnc3cc(Cl)nn3c21 [US20240018157, Example 165]",> 1000 nM
6,"C[C@@]1(C(F)(F)F)CN(C(=O)N[C@H]2CCC(F)(F)C2)c2cnc3cc(Cl)nn3c21 [US20240018157, Example 166]",> 1000 nM
7,"CN1CCOC(c2ncc(NC(=O)N3C[C@@](C)(C(F)(F)F)c4c3cnc3cc(Cl)nn43)cc2Cl)C1 (stereo not given in full) [US20240018157, Example 167]",> 1000 nM
8,"C[C@@]1(C(F)(F)F)CN(C(=O)Nc2cnc(C3(O)CCC3)c(Cl)c2)c2cnc3cc(Cl)nn3c21 [US20240018157, Example 168]",> 1000 nM
9,"CN1CC(Nc2cc(NC(=O)N3C[C@@](C)(C(F)(F)F)c4c3cnc3cc(Cl)nn43)cc(C(F)(F)F)n2)C1 [US20240018157, Example 169]",> 1000 nM
10,"CC1(C)CC(NC(=O)N2C[C@@](C)(C(F)(F)F)c3c2cnc2cc(Cl)nn32)CCO1 (stereo not given in full) [US20240018157, Example 170]",> 1000 nM
11,"C[C@@]1(C(F)(F)F)CN(C(=O)N[C@@H]2CCCC[C@H]2O)c2cnc3cc(Cl)nn3c21 [US20240018157, Example 171]",> 1000 nM
12,"CC1CC(NC(=O)N2C[C@@](C)(C(F)(F)F)c3c2cnc2cc(Cl)nn32)CCO1 (stereo not given in full) [US20240018157, Example 173]",> 1000 nM
13,"C[C@@]1(C(F)(F)F)CN(C(=O)NC2CCC3(CCCO3)CC2)c2cnc3cc(Cl)nn3c21 (stereo not given in full) [US20240018157, Example 174]",> 1000 nM
14,"C[C@@]1(C(F)(F)F)CN(C(=O)n2nc(C(F)(F)F)cc2N)c2cnc3cc(Cl)nn3c21 [US20240018157, Example 175]",> 1000 nM
15,"Cc1cc(NC(=O)N2C[C@@](C)(C(F)(F)F)c3c2cnc2cc(Cl)nn32)nc2c1cnn2C [US20240018157, Example 176]",> 1000 nM
16,"C[C@@]1(C(F)(F)F)CN(C(=O)n2nc(C(F)F)cc2N)c2cnc3cc(Cl)nn3c21 [US20240018157, Example 177]",> 1000 nM
17,"CN1CC(Oc2cc(C(F)F)cc(NC(=O)N3C[C@@](C)(C(F)(F)F)c4c3cnc3cc(Cl)nn43)n2)C1 [US20240018157, Example 178]",> 1000 nM
18,"C[C@@]1(C(F)(F)F)CN(C(=O)Nc2cc(C(F)F)ns2)c2cnc3cc(Cl)nn3c21 [US20240018157, Example 179]",> 1000 nM
19,"C[C@@]1(C(F)(F)F)CN(C(=O)Nc2cnc(-n3nccn3)c(C(F)(F)F)c2)c2cnc3cc(F)nn3c21 [US20240018157, Example 181]",< 10 nM
20,"C[C@]1(C(F)(F)F)CN(C(=O)Nc2cnc(-n3nccn3)c(C(F)(F)F)c2)c2cnc3cc(F)nn3c21 [US20240018157, Example 182]",> 1000 nM
21,"C[C@H](O)c1cnnn1-c1ncc(NC(=O)N2C[C@@](C)(C(F)(F)F)c3c2cnc2cc(Cl)nn32)cc1C(F)F [US20240018157, Example 184]",10 to 100 nM
22,"C[C@@]1(C(F)(F)F)CN(C(=O)Nc2cc(Cl)c(C(=O)O)c(O[C@H]3CCNC3)n2)c2cnc3cc(Cl)nn3c21 [US20240018157, Example 185]",> 1000 nM

row,Compound,IC50
1,"CNc1cc(NC(=O)N2C[C@@](C)(C(F)(F)F)c3c2cnc2cc(Cl)nn32)ncc1-n1nccn1 [US20240018157, Example 186]",> 1000 nM
2,"CNc1cc(NC(=O)N2C[C@@](C)(C(F)(F)F)c3c2cnc2cc(Cl)nn32)cnc1-n1ccnn1 [US20240018157, Example 187]",> 1000 nM
3,"C[C@]1(C(F)(F)F)CN(C(=O)Nc2cnnc(C(F)F)c2)c2cnc3cc(C#N)nn3c21 [US20240018157, Example 189]",100 to 1000 nM
4,"C[C@@]1(C(F)(F)F)CN(C(=O)Nc2cnnc(C(F)F)c2)c2cnc3cc(C#N)nn3c21 [US20240018157, Example 190]",> 1000 nM
5,"CC(O)c1cnn(-c2ncc(NC(=O)N3C[C@@](C)(C(F)(F)F)c4c3cnc3cc(F)nn43)cc2C(F)F)n1 (stereo not given in full) [US20240018157, Example 191]",< 10 nM
6,"CNc1nc(NC(=O)N2C[C@@](C)(C(F)(F)F)c3c2cnc2cc(Cl)nn32)ccc1-n1nccn1 [US20240018157, Example 192]",> 1000 nM
7,"CCc1cc2ncc3c(n2n1)[C@@](C)(C(F)(F)F)CN3C(=O)Nc1cnnc(C(F)F)c1 [US20240018157, Example 194]",> 1000 nM
8,"CCc1cc2ncc3c(n2n1)[C@](C)(C(F)(F)F)CN3C(=O)Nc1cnnc(C(F)F)c1 [US20240018157, Example 195]",10 to 100 nM
9,"C[C@]1(C(F)(F)F)CN(C(=O)Nc2cnnc(C(F)F)c2)c2cnc3cc(CC(F)(F)F)nn3c21 [US20240018157, Example 196]",> 1000 nM
10,"C[C@@]1(C(F)(F)F)CN(C(=O)Nc2cnnc(C(F)F)c2)c2cnc3cc(CC(F)(F)F)nn3c21 [US20240018157, Example 197]",> 1000 nM
11,"C[C@]1(C(F)(F)F)CN(C(=O)Nc2cnnc(C(F)F)c2)c2cnc3cc(OC(F)F)nn3c21 [US20240018157, Example 199]",> 1000 nM
12,"C[C@@]1(C(F)(F)F)CN(C(=O)Nc2cnnc(C(F)F)c2)c2cnc3cc(OC(F)F)nn3c21 [US20240018157, Example 200]",> 1000 nM
13,"O=C(Nc1cnc(-n2nccn2)c(Cl)c1)N1CC(O)(C(F)(F)F)c2c1cnc1cc(Cl)nn21 (stereo not given) [US20240018157, Example 201]",< 10 nM
14,"C[C@]1(C(F)F)CN(C(=O)Nc2cnc(OC(F)F)c(Cl)c2)c2cnc3cc(Cl)nn3c21 [US20240018157, Example 204]",10 to 100 nM
15,"C[C@@]1(C(F)F)CN(C(=O)Nc2cnc(OC(F)F)c(Cl)c2)c2cnc3cc(Cl)nn3c21 [US20240018157, Example 205]",< 10 nM
16,"Cc1cn2ncc3c(c2n1)C(C)(C)CN3C(=O)Nc1cnc(C(=O)N(C)C)c(Cl)c1 [US20240018157, Example 206]",> 1000 nM
17,"COC1CN(C(=O)c2ncc(NC(=O)N3CC(C)(C)c4c3cnn3cc(C)nc43)cc2Cl)C1 [US20240018157, Example 207]",> 1000 nM
18,"Cc1cn2ncc3c(c2n1)C(C)(C)CN3C(=O)Nc1cnc(C(=O)N2CC(O)C2)c(Cl)c1 [US20240018157, Example 208]",> 1000 nM
19,"C[C@@]1(C(F)(F)F)CN(C(=O)Nc2cnc(C3COC3)c(Cl)c2)c2cnc3cc(Cl)nn3c21 [US20240018157, Example 209]",> 1000 nM
20,"Cn1cc([C@]2(C(F)(F)F)CN(C(=O)Nc3cnnc(C(F)F)c3)c3cnc4cc(Cl)nn4c32)cn1 [US20240018157, Example 210]",> 1000 nM
21,"Cn1cc([C@@]2(C(F)(F)F)CN(C(=O)Nc3cnnc(C(F)F)c3)c3cnc4cc(Cl)nn4c32)cn1 [US20240018157, Example 211]",10 to 100 nM
